US20080045495A1, “Treatment of Patients with Cystic Disease by Alteration of Fibrocystin Proteolysis” (BOARD OF REGENTS, THE UNIVERSITY OF TEXAS SYSTEM, priority 2006, published 2008)

Experiments:
[1] = test system: fibrocystin cleavage in HEK-293 cells; test: Luciferase reporter assay of fibrocystin cleavage (pFC-GV / pG5-luc) in HEK-293 cells; type: cell-based, human; settings: 5 mM caffeine versus vehicle, HEK-293, 12 hours, FIG. 4D
Method: Reporter Gene Assays—mIMCD-3 cells, HEK-293 cells, or HeLa cells were plated in 6-well dishes (3×10^5 cells/well) and cotransfected with 0.05 μg phRL-TK(Int−) encoding Renilla luciferase (Promega, Madison, Wis.), 0.1 μg Photinus luciferase reporter plasmids, and 0.01-0.3 μg effector plasmids. Luciferase assays were performed as described previously (Hiesberger, 2004). Relative luciferase activity was calculated as the ratio of Photinus and Renilla luciferase.
(§1) FIG. 4 A is an image of a gel illustrating mIMCD3/FC cells were grown for 4 days and incubated with 0.1 μM thapsigargin (lane 2), 5 mM caffeine (lane 3), 75 μM dantrolene (lane 5), 200 μM ruthenium red (lane 7), or no additions (lanes 1, 4 and 6). After 2 hours, media were replaced with media lacking serum but containing the same supplements, and, in addition, 10 nM mifeprisone. Cell lysates were prepared after 24 hours and analyzed by immunoblotting using anti-V5 antibody. FIG. 4B is a graph of mIMCD-3 cells were transfected with 0.2 μg pG5-luc and either 0.2 μg pFC-GV or 0.2 μg pLDLR-GV. After 24 hours, cells were incubated in serum-free media in the presence or absence of 75 μM dantrolene. Relative luciferase activity was determined after 48 h. Data presented are mean ±SE of three separate transfections. The fibrocystin/Gal4-VP16 fusion protein is shown schematically below. Shaded box indicates the transmembrane segment; filled boxes indicate the N-terminal signal sequence and the C-terminal Gal4-VP16 fusion protein. FIG. 4C is an image of a gel illustrating HEK-293 cells transfected with 6 μg pFC-V5, and 8 hours later incubated in serum-free media containing 1-8 mM caffeine, 0.5 μM calphostin, or no additions. Cells were lysed after 16 h, and extracts were analyzed by immunoblotting using anti-V5 antibody. FIG. 4D is a graph of HEK-293 cells transfected with 0.2 μg pFC-GV and 0.2 μg pG5-luc. After 24 hours, cells were incubated in serum-free media containing 5 mM caffeine or no additions. Luciferase activity was measured after 12 hours. Data presented are mean ±SE of three separate transfections. FIG. 4E is an image of a gel illustrating HEK-293 cells stably expressing the m3 muscarinic receptor (lanes 1-4) and untransfected HEK-293 cells (lanes 5-8) were transfected with 6 μg pFC-V5. […] Cells were lysed after 16 hours, and extracts were analyzed by immunoblotting using anti-V5 antibody.
To quantitatively measure fibrocystin cleavage, a luciferase assay was developed that was similar to the ones employed to quantify the proteolytic cleavage of amyloid precursor protein (APP) and low density lipoprotein receptor related protein-1 (LRP1) (Cao, 2001; May, 2003). A plasmid (FC-GV) encoding the synthetic transcription factor Gal4-VP16 fused to the C-terminus of fibrocystin was generated. Proteolytic cleavage of the fibrocystin fusion protein releases Gal4-VP16, which translocates to the nucleus and activates a Gal4-responsive luciferase reporter gene (pG5-luc). Therefore, luciferase expression correlates with fibrocystin cleavage.
To quantify fibrocystin proteolysis in response to intracellular Ca^2+ release, the luciferase reporter assay was employed. HEK-293 cells were cotransfected with the plasmids pFC-GV and pG5-luc and incubated with either 5 mM caffeine or vehicle (as a control).
FIG. 5A is an image of a gel that illustrates HEK-293 cells were transfected with 6 μg pFC-V5.

[2] = test system: fibrocystin cleavage in HEK-293 cells; test: Immunoblot (anti-V5) of fibrocystin proteolysis in HEK-293 cells transfected with pFC-V5; type: cell-based, human
Method: as §1
FIG. 5A is an image of a gel that illustrates HEK-293 cells were transfected with 6 μg pFC-V5. […] Fourteen hours later, cellular proteins were extracted and analyzed by immunoblotting using anti-V5 antibody. FIG. 5B is an image of a gel mIMCD3/FC cells were grown for 4 days, and expression of fibrocystin was induced by addition of 10 nM mifepristone. After 24 hours, media were supplemented with 0.1, 0.5, or 1 μM calphostin C. Thirty hours later, cells were harvested, and proteins were analyzed by immunoblotting using anti-V5 antibody. FIG. 5C is an image of a gel illustrating HEK-293 cells were transfected with 3 μg pFC-V5 and either 3 μg of the empty vector pEF-neo (lanes 1 and 3) or 3 μg pEF-PKCαA/E (lanes 2 and 4). After 12 hours media were changed to media containing 10% FCS (lanes 1 and 2) or 0.2% BSA (lanes 3 and 4). Forty-eight hours later, cells were harvested, and proteins were subjected to immunoblotting using anti-V5 antibody. FIG. 5D is a plot illustrating HEK-293 cells transfected with 0.2 μg pG5-luc and 0.2 μg pFC-GV, pLDLR-GV and/or pEF-PKCαA/E. After 16 hours, media were changed to serum-free media containing 100 nM PMA or 500 μM Br-cAMP. Twenty-four hours later, cells were harvested, and relative luciferase activities were determined. Data are the mean ±SE of three independent transfections.

[3] = test system: fibrocystin cleavage in mIMCD3/FC cells; test: Immunoblot (anti-V5) of fibrocystin proteolytic fragments in mIMCD3/FC cells; type: cell-based, human; settings: pretreatment with 5 mM caffeine, lysates after 24 hours, FIG. 4A
Method: Cell Culture, Transfection and Generation of Stable Cell Lines—mIMCD-3 cells were plated at a density of 500,000 cells/100 mm dish, and 24 hours and 48 hours later the cells were transfected with 2 μg of pFC-V5 using Effectene (Qiagen, Valencia, Calif.). Cells were incubated for an additional 72 hours and lysed in 100 μl buffer containing Tris-buffered saline, 0.5% Triton X-100, protease inhibitor cocktail (Hoffmann-La Roche Inc., Indianapolis, Ind.). Twenty μl of the lysates were analyzed by SDS-PAGE, and immunoblot analysis was performed using HRP-conjugated anti-V5 as described previously (Hiesberger, 2005). mIMCD3/FC and mIMCD3/EGFP cell lines with inducible expression of fibrocystin and EGFP, respectively, were produced by transfecting mIMCD-3 cells with 1.5 μg pSwitch and either 1.5 μg pGeneFC or 1.5 μg pGeneEGFP. Stable transfectants were isolated after 14 days of growth in media containing hygromycin (350 μg/ml) and zeocin (300 μg/ml). To test for inducible expression, cells derived from individual clones were treated with mifepristone (10 nM) for 48 h or left untreated, and proteins were analyzed by immunoblotting using HRP-conjugated anti-FLAG. HEK-293 cells stably transfected with the muscarinic acetylcholine receptor M3 were a generous gift from Trevor Shuttleworth (University of Rochester Medical center) (Yang, 1995).
To further investigate the proteolytic cleavage of fibrocystin, mIMCD3/FC cells were generated, in which the expression of recombinant human fibrocystin can be induced by treatment with mifepristone.
FIG. 4 A is an image of a gel illustrating mIMCD3/FC cells were grown for 4 days and incubated with 0.1 μM thapsigargin (lane 2), 5 mM caffeine (lane 3), 75 μM dantrolene (lane 5), 200 μM ruthenium red (lane 7), or no additions (lanes 1, 4 and 6). After 2 hours, media were replaced with media lacking serum but containing the same supplements, and, in addition, 10 nM mifeprisone. Cell lysates were prepared after 24 hours and analyzed by immunoblotting using anti-V5 antibody. FIG. 4B is a graph of mIMCD-3 cells were transfected with 0.2 μg pG5-luc and either 0.2 μg pFC-GV or 0.2 μg pLDLR-GV. After 24 hours, cells were incubated in serum-free media in the presence or absence of 75 μM dantrolene. Relative luciferase activity was determined after 48 h. Data presented are mean ±SE of three separate transfections. The fibrocystin/Gal4-VP16 fusion protein is shown schematically below. […] Cells were lysed after 16 h, and extracts were analyzed by immunoblotting using anti-V5 antibody. […] Luciferase activity was measured after 12 hours. […] Cells were lysed after 16 hours, and extracts were analyzed by immunoblotting using anti-V5 antibody. […]

[4] = test system: fibrocystin cleavage in HEK-293(m3) cells
Method: FIG. 4 A is an image of a gel illustrating mIMCD3/FC cells were grown for 4 days and incubated with 0.1 μM thapsigargin (lane 2), 5 mM caffeine (lane 3), 75 μM dantrolene (lane 5), 200 μM ruthenium red (lane 7), or no additions (lanes 1, 4 and 6). After 2 hours, media were replaced with media lacking serum but containing the same supplements, and, in addition, 10 nM mifeprisone. Cell lysates were prepared after 24 hours and analyzed by immunoblotting using anti-V5 antibody. FIG. 4B is a graph of mIMCD-3 cells were transfected with 0.2 μg pG5-luc and either 0.2 μg pFC-GV or 0.2 μg pLDLR-GV. After 24 hours, cells were incubated in serum-free media in the presence or absence of 75 μM dantrolene. Relative luciferase activity was determined after 48 h. Data presented are mean ±SE of three separate transfections. The fibrocystin/Gal4-VP16 fusion protein is shown schematically below. Shaded box indicates the transmembrane segment; filled boxes indicate the N-terminal signal sequence and the C-terminal Gal4-VP16 fusion protein. […] Cells were lysed after 16 h, and extracts were analyzed by immunoblotting using anti-V5 antibody. […] Luciferase activity was measured after 12 hours. […] Cells were lysed after 16 hours, and extracts were analyzed by immunoblotting using anti-V5 antibody.

Cn1c(=O)c2c(ncn2C)n(C)c1=O [caffeine]
increase of luciferase activity [1]: 10 fold | fibrocystin proteolysis ([2]; 5 mM caffeine, untransfected HEK-293 cells, 16 hours, FIG. 4E): triggered fibrocystin proteolysis | proteolysis of fibrocystin ([2]; 1-8 mM caffeine, serum-free media, HEK-293, lysed after 16 h, FIG. 4C): induced dose-dependent proteolysis | generation of FCA [3]: prevented | fibrocystin proteolysis [4]: triggered fibrocystin proteolysis
